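Step 1: Grow cells in 96-well plates. Step 2: Expose to compound for 48 hours at 5 concentrations. Step 3: Interpolate endpoints linearly; if unreached, use highest concentration. GI50 marks 50% less growth.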 Activity calls are given as the source filed them. No stated cut-off is given here; in the data, active = GI50 up to about 1.1 µM and inactive = higher.
Assays:
Assay in all cases: DTP human tumour cell line panel, 48 h
UO-31 = test system: UO-31
SN12C = test system: SN12C
SK-MEL-5 = test system: SK-MEL-5
SK-MEL-2 = test system: SK-MEL-2
HL-60 = test system: HL-60
SNB-75 = test system: SNB-75
UACC-62 = test system: UACC-62
A498 = test system: A498
HCT-116 = test system: HCT-116
HOP-62 = test system: HOP-62
KM12 = test system: KM12
SK-MEL-28 = test system: SK-MEL-28
SF-295 = test system: SF-295
HOP-92 = test system: HOP-92
LOX IMVI = test system: LOX IMVI

Measured: GI50

Nc1ccn([C@@H]2C[C@H](CO)[C@@H](O)[C@H]2O)c(=O)n1
inactive: UO-31 > 57.7 µM | SN12C > 57.7 µM | SK-MEL-5 > 57.7 µM | SK-MEL-2 > 57.7 µM | HL-60 > 57.7 µM | SNB-75 > 57.7 µM | UACC-62 > 57.7 µM | A498 > 57.7 µM | HCT-116 > 57.7 µM | HOP-62 > 57.7 µM | KM12 > 57.7 µM | SK-MEL-28 > 57.7 µM

COc1ccc2c(c1)CCc1c-2nc2cc3c(cc2c1O)OCO3
inactive: UO-31 > 100 µM | SN12C > 100 µM | SF-295 > 100 µM | SK-MEL-5 > 100 µM | SK-MEL-2 > 100 µM | HL-60 > 100 µM | HOP-92 > 100 µM | SNB-75 > 100 µM | UACC-62 > 100 µM | HCT-116 > 100 µM | HOP-62 > 100 µM | KM12 > 100 µM | SK-MEL-28 > 100 µM | LOX IMVI > 100 µM

O=c1c(-c2ccccc2)c(O)nc2[nH]c3ccccc3n12
inactive: UO-31 > 100 µM | SN12C > 100 µM | SF-295 > 100 µM | SK-MEL-5 > 100 µM | SK-MEL-2 > 100 µM | HL-60 > 100 µM | HOP-92 > 100 µM | SNB-75 > 100 µM | UACC-62 > 100 µM | A498 > 100 µM | HCT-116 > 100 µM | HOP-62 > 100 µM | KM12 > 100 µM | SK-MEL-28 > 100 µM | LOX IMVI > 100 µM

CNS(=O)(=O)NNS(=O)(=O)c1ccc(Br)cc1
inactive: UO-31 20.6 µM | SK-MEL-5 > 100 µM | SK-MEL-2 > 100 µM | HL-60 > 100 µM | HOP-92 32.1 µM | SNB-75 47 µM | UACC-62 > 100 µM | A498 > 100 µM | HCT-116 99.3 µM | HOP-62 > 100 µM | SK-MEL-28 > 100 µM | LOX IMVI > 100 µM

COc1ccc(OC)c2[s+]snc12
inactive: UO-31 29 µM | SN12C > 100 µM | SF-295 55.7 µM | SK-MEL-5 19 µM | SK-MEL-2 33.8 µM | HL-60 33.3 µM | SNB-75 93.5 µM | UACC-62 26.6 µM | A498 > 100 µM | HCT-116 57.7 µM | HOP-62 > 100 µM | KM12 38.6 µM | SK-MEL-28 83.8 µM | LOX IMVI 35.6 µM

O=C(NC12CC3CC(CC(C3)C1)C2)C(=O)c1c[nH]c2ccc(Br)cc12
inactive: UO-31 26.2 µM | SN12C 18.5 µM | SF-295 4.18 µM | SK-MEL-5 41 µM | SK-MEL-2 56.9 µM | HL-60 5.02 µM | HOP-92 20.8 µM | SNB-75 12.6 µM | UACC-62 23.5 µM | HCT-116 14.6 µM | HOP-62 7.06 µM | KM12 7.08 µM | SK-MEL-28 43.1 µM | LOX IMVI 5.25 µM

COc1cc2c(cc1OC)C(C(=O)c1cccc(OC)c1OC)C(=O)N(C)CC2 (configuration not stated)
inactive: UO-31 > 100 µM | SN12C > 100 µM | SK-MEL-5 > 100 µM | SK-MEL-2 > 100 µM | HL-60 > 100 µM | HOP-92 65.5 µM | SNB-75 > 100 µM | UACC-62 > 100 µM | A498 > 100 µM | HCT-116 > 100 µM | HOP-62 > 100 µM | KM12 > 100 µM | SK-MEL-28 > 100 µM | LOX IMVI > 100 µM

CC1CCSC(N(C(=O)N(C)c2ccccc2)c2ccccc2)=N1 (configuration not stated)
inactive: UO-31 > 100 µM | SN12C > 100 µM | SF-295 > 100 µM | SK-MEL-5 > 100 µM | SK-MEL-2 > 100 µM | HL-60 > 100 µM | SNB-75 > 100 µM | UACC-62 > 100 µM | A498 > 100 µM | HCT-116 > 100 µM | HOP-62 > 100 µM | KM12 > 100 µM | SK-MEL-28 > 100 µM | LOX IMVI > 100 µM

O=C(NC12CC3CCC1CC(C3)C2)[C@@H]1CCCN1C(=O)OCc1ccccc1 (some centres not stated)
inactive: UO-31 24 µM | SN12C 46.5 µM | SF-295 36.1 µM | SK-MEL-2 40.6 µM | HL-60 25.8 µM | HOP-92 18.6 µM | SNB-75 26.7 µM | UACC-62 83.6 µM | A498 27.9 µM | HCT-116 58.9 µM | HOP-62 > 100 µM | KM12 48.4 µM | SK-MEL-28 31.1 µM | LOX IMVI 59 µM

NC(=O)NC1C(C(=O)O)N(Cc2ccccc2)C(=O)N1Cc1ccccc1 (configuration not stated)
inactive: UO-31 > 100 µM | SF-295 > 100 µM | SK-MEL-5 > 100 µM | SK-MEL-2 > 100 µM | HL-60 > 100 µM | HOP-92 > 100 µM | SNB-75 > 100 µM | UACC-62 > 100 µM | HCT-116 > 100 µM | HOP-62 > 100 µM | KM12 > 100 µM | SK-MEL-28 > 100 µM | LOX IMVI > 100 µM

COc1ccc(OCC(=O)O)c2c1CCCC2=O
inactive: UO-31 > 100 µM | SN12C > 100 µM | SF-295 > 100 µM | SK-MEL-5 > 100 µM | SK-MEL-2 > 100 µM | HL-60 > 100 µM | HOP-92 > 100 µM | SNB-75 62.8 µM | UACC-62 81.3 µM | A498 > 100 µM | HCT-116 > 100 µM | HOP-62 > 100 µM | KM12 > 100 µM | SK-MEL-28 > 100 µM | LOX IMVI > 100 µM

COC(=O)C12C3C4C5C3(C#N)C1C5(C(=O)OC)C42C(=O)N(C(C)C)C(C)C (configuration not stated)
inactive: UO-31 > 100 µM | SN12C > 100 µM | SF-295 > 100 µM | SK-MEL-5 > 100 µM | SK-MEL-2 > 100 µM | HL-60 > 43.7 µM | HOP-92 > 100 µM | SNB-75 > 100 µM | UACC-62 > 100 µM | A498 > 100 µM | HCT-116 39.9 µM | HOP-62 > 100 µM | KM12 > 100 µM | SK-MEL-28 > 100 µM | LOX IMVI 58.1 µM

CC1=C(C(=O)Nc2cc(=O)n(C)c(=O)n2C)C(c2ccco2)C(C(=O)Nc2cc(=O)n(C)c(=O)n2C)=C(C)N1
inactive: UO-31 > 100 µM | SN12C > 100 µM | SF-295 > 100 µM | SK-MEL-5 > 100 µM | SK-MEL-2 > 100 µM | HL-60 > 100 µM | HOP-92 48.5 µM | SNB-75 44.8 µM | A498 > 100 µM | HOP-62 41.5 µM | KM12 > 100 µM | SK-MEL-28 > 100 µM | LOX IMVI > 100 µM

CN(C)C(=S)/N=c1\ss/c(=N\C(=S)N(C)C)n1-c1ccc(Cl)c(Cl)c1
inactive: UO-31 > 100 µM | SN12C > 100 µM | SF-295 > 100 µM | SK-MEL-5 > 100 µM | SK-MEL-2 > 100 µM | HL-60 > 100 µM | SNB-75 27.1 µM | UACC-62 30.9 µM | A498 > 100 µM | HCT-116 > 100 µM | HOP-62 40.6 µM | KM12 > 100 µM | SK-MEL-28 > 100 µM | LOX IMVI > 100 µM

COC(=O)C(=O)C(C#N)c1cccc2ccccc12 (configuration not stated)
inactive: UO-31 > 100 µM | SN12C > 100 µM | SF-295 > 100 µM | SK-MEL-5 > 100 µM | HL-60 > 100 µM | HOP-92 > 100 µM | SNB-75 97.3 µM | UACC-62 > 100 µM | A498 > 100 µM | HCT-116 > 100 µM | HOP-62 > 100 µM | KM12 22.9 µM | SK-MEL-28 > 100 µM | LOX IMVI > 100 µM

COc1cc2c(c(OC)c1)C1(CC(CC#N)C2)SCCS1 (configuration not stated)
inactive: UO-31 > 100 µM | SN12C > 100 µM | SK-MEL-5 62.2 µM | SK-MEL-2 > 100 µM | HL-60 > 100 µM | SNB-75 56.9 µM | UACC-62 > 100 µM | A498 > 100 µM | HCT-116 > 100 µM | HOP-62 > 100 µM | KM12 > 100 µM | SK-MEL-28 > 100 µM

NCCCCN(CCCN)/[N+]([O-])=N\O
inactive: UO-31 > 100 µM | SN12C > 100 µM | SF-295 > 100 µM | SK-MEL-5 > 100 µM | SK-MEL-2 > 100 µM | HL-60 > 100 µM | HOP-92 > 100 µM | SNB-75 > 100 µM | UACC-62 > 100 µM | HCT-116 > 100 µM | HOP-62 > 100 µM | KM12 > 100 µM | SK-MEL-28 > 100 µM

CC(O)C(N/C=C1/N=C(c2ccccc2)OC1=O)C(=O)O (configuration not stated)
inactive: UO-31 > 100 µM | SF-295 > 100 µM | SK-MEL-5 > 100 µM | SK-MEL-2 > 100 µM | HL-60 10 µM | HOP-92 > 100 µM | SNB-75 > 100 µM | UACC-62 > 100 µM | A498 > 100 µM | HCT-116 > 100 µM | HOP-62 > 100 µM | KM12 > 100 µM | SK-MEL-28 > 100 µM | LOX IMVI > 100 µM

O=C(c1ccccn1)c1nc(-c2ccc(Cl)c(Cl)c2)nc2ccc(Cl)cc12
inactive: UO-31 56.9 µM | SF-295 31.1 µM | SK-MEL-5 51.9 µM | SK-MEL-2 34.3 µM | HL-60 > 100 µM | SNB-75 12.3 µM | UACC-62 39.2 µM | A498 45.1 µM | HCT-116 15.5 µM | HOP-62 21.3 µM | KM12 > 100 µM | SK-MEL-28 > 100 µM

COC(=O)/C=C/C1C2C3(CCC(C)C12C)OCCS3 (configuration not stated)
inactive: UO-31 > 100 µM | SN12C > 100 µM | SF-295 > 100 µM | SK-MEL-5 > 100 µM | SK-MEL-2 > 100 µM | HL-60 > 100 µM | HOP-92 > 100 µM | SNB-75 > 100 µM | A498 > 100 µM | HCT-116 > 100 µM | HOP-62 > 100 µM | KM12 > 100 µM | SK-MEL-28 > 100 µM | LOX IMVI > 100 µM

Reference: ChEMBL document CHEMBL1201862, “PubChem BioAssay data set” (2004)
